These results are taken from patent publication US9296741B2, “Bromodomain inhibitors” (priority 2012, dated 2016).

The target in series [1] is human BRD4 first bromodomain (BDI_K57-E168) (Homo sapiens (Human), UniProt O60885). The series can be described thus: TR-FRET bromodomain binding assay, BRD4 first bromodomain.
Series [2] relates to breast cancer cell line MX-1. The series can be described thus: MX-1 cell line proliferation assay. It counts as cell-based, human. The note with it: Homo sapiens, MX1, 72 h; MX-1 cells, 3-day proliferation, Cell Titer Glo; read-out: Cellular proliferation: EC50.
Series [3] is described as follows: Rat liver microsome stability assay. It counts as in vitro ADME. The note with it: rat liver microsomes (male Sprague-Dawley), 0.5 μM test compound, 0.25 mg/mL microsomal protein, pH 7.4, 37° C.; read-out: Stability in rat liver microsomes (t1/2 in minutes).
The nature of series [4]: Human liver microsome stability assay. The note with it: both sexes, human, microsomes, pH 7.4. It counts as in vitro ADME.
Series [5] deals with human BRD4 second bromodomain (BDII_E352-M457) (Homo sapiens (Human), UniProt O60885). The series can be described thus: TR-FRET bromodomain binding assay, BRD4 second bromodomain.
Series [6] is described as follows: Mouse liver microsome stability assay. It counts as in vitro ADME. The note with it: male, CD1, mouse, microsomes, pH 7.4.

Structures are written as SMILES.

With `Cn1cc(-c2cc(S(C)(=O)=O)ccc2OCC2(F)COC2)c2cc[nH]c2c1=O` [Example 206, 4-{2-[(3-fluorooxetan-3-yl)methoxy]-5-(methylsulfonyl)phenyl}-6-methyl-1,6-dihydro-7H-pyrrolo[2,3-c]pyridin-7-one], the figures for the Ki in series [1] and in series [5] were 0.0116 µM and 0.0228 µM, respectively. For the same compound, in series [2], the EC50 amounted to 0.0777 µM. Also, the half-life at 0.5 μM in series [3] was 118 min; in series [4] it was above 120 min; in series [6], 95 min.
With `CNS(=O)(=O)Nc1ccc(OC2CCCOC2)c(-c2cn(C)c(=O)c3[nH]ccc23)c1` (stereo not drawn) [Example 108, N-methyl-N′-[3-(6-methyl-7-oxo-6,7-dihydro-1H-pyrrolo[2,3-c]pyridin-4-yl)-4-(tetrahydro-2H-pyran-3-yloxy)phenyl]sulfuric diamide], the Ki in series [1] amounted to 0.0014 µM; in series [5] it was 0.0053 µM. Besides, the EC50 in series [2] is 0.038 µM. The half-life at 0.5 μM in series [3] was 33 min; in series [4], 37 min; in series [6], 13 min.
In the case of `Cn1cc(-c2cc(NS(C)(=O)=O)ccc2OC2CCOCC2)c2cc[nH]c2c1=O` [Example 29, N-[3-(6-methyl-7-oxo-6,7-dihydro-1H-pyrrolo[2,3-c]pyridin-4-yl)-4-(tetrahydro-2H-pyran-4-yloxy)phenyl]methanesulfonamide], the Ki came to 0.0011 µM in series [1] and 0.0067 µM in series [5]. Also, the EC50 in series [2] is 0.0718 µM. The half-life at 0.5 μM in series [3] was 26 min; in series [4] it was above 120 min; in series [6], above 120 min.
For the compound `CCS(=O)(=O)Nc1ccc(OCC2CC2)c(-c2cn(C)c(=O)c3[nH]ccc23)c1C` [Example 251, N-[4-(cyclopropylmethoxy)-2-methyl-3-(6-methyl-7-oxo-6,7-dihydro-1H-pyrrolo[2,3-c]pyridin-4-yl)phenyl]ethanesulfonamide], the Ki in series [1] came to 0.0631 µM; in series [5], 0.171 µM. Also, in series [2], the EC50 was 0.573 µM. For the same compound, the half-life at 0.5 μM in series [3] came to 23 min; in series [4], 118 min; in series [6], 44 min.
For the compound `Cn1cc(-c2cc(-c3cccc(C#N)c3)ccc2OCC2CC2)c2cc[nH]c2c1=O` [Example 353, 4′-(cyclopropylmethoxy)-3′-(6-methyl-7-oxo-6,7-dihydro-1H-pyrrolo[2,3-c]pyridin-4-yl)biphenyl-3-carbonitrile], the results for the Ki in series [1] and in series [5] were 0.158 µM and 0.256 µM, respectively. In addition, the EC50 in series [2] is 0.786 µM. The results for the half-life at 0.5 μM in series [3], in series [4] and in series [6] were 8 min, 40 min and 10 min, respectively.
Regarding `CC(C)S(=O)(=O)c1ccc(NCC2CC2)c(-c2cn(C)c(=O)c3[nH]ccc23)c1` [Example 261, 4-{2-[(cyclopropylmethyl)amino]-5-(propan-2-ylsulfonyl)phenyl}-6-methyl-1,6-dihydro-7H-pyrrolo[2,3-c]pyridin-7-one], the Ki in series [1] is 0.0015 µM; in series [5] it was 0.0016 µM. Moreover, in series [2], the EC50 was 0.0072 µM. The half-life at 0.5 μM in series [3] worked out at 5 min; in series [4], 25 min; in series [6], 16 min.
On to `Cn1cc(-c2cc(NS(=O)(=O)C3CC3)ccc2Oc2ccc(F)cc2F)c2cc[nH]c2c1=O` [Example 235, N-[4-(2,4-difluorophenoxy)-3-(6-methyl-7-oxo-6,7-dihydro-1H-pyrrolo[2,3-c]pyridin-4-yl)phenyl]cyclopropanesulfonamide], for which the Ki in series [1] amounted to 0.0174 µM; in series [5], 0.007 µM. Moreover, the EC50 in series [2] was 0.0665 µM. Moreover, the half-life at 0.5 μM in series [3] was determined as 49 min; in series [4], 81 min; in series [6] it was 22 min.
With `Cn1cc(-c2cc(S(C)(=O)=O)ccc2Oc2ccccc2CCO)c2cc[nH]c2c1=O` [Example 309, 4-{2-[2-(2-hydroxyethyl)phenoxy]-5-(methylsulfonyl)phenyl}-6-methyl-1,6-dihydro-7H-pyrrolo[2,3-c]pyridin-7-one], the inhibition constant Ki in series [1] worked out at 0.0306 µM; in series [5], 0.0169 µM. Moreover, in series [2], the EC50 stood at 0.0859 µM. The half-life at 0.5 μM in series [3], in series [4] and in series [6] was above 120 min in each case.
In the case of `Cn1cc(-c2cc(C(=O)NC3CCS(=O)(=O)C3)ccc2Oc2ccccc2)c2cc[nH]c2c1=O` (stereo not drawn) [Example 18, N-(1,1-dioxidotetrahydrothiophen-3-yl)-3-(6-methyl-7-oxo-6,7-dihydro-1H-pyrrolo[2,3-c]pyridin-4-yl)-4-phenoxybenzamide], the Ki in series [1] amounted to 0.0102 µM; in series [5], 0.0103 µM. For the same compound, in series [2], the EC50 turned out to be 0.209 µM. The half-life at 0.5 μM in series [3] was determined as 11 min; in series [4] it was 31 min; in series [6], 15 min.
With `Cn1cc(-c2cc(S(C)(=O)=O)ccc2OC2CCCCC2)c2cc[nH]c2c1=O` [Example 215, 4-[2-(cyclohexyloxy)-5-(methylsulfonyl)phenyl]-6-methyl-1,6-dihydro-7H-pyrrolo[2,3-c]pyridin-7-one], the Ki in series [1] came out at 0.00083 µM; in series [5], 0.00046 µM. Besides, in series [2], the EC50 is 0.0019 µM. For the same compound, the figures for the half-life at 0.5 μM in series [3], in series [4] and in series [6] were 6 min, 12 min and 11 min, respectively.
With `Cn1cc(-c2cc(NS(C)(=O)=O)ccc2Oc2ccc(C#N)cc2)c2cc[nH]c2c1=O` [Example 33, N-[4-(4-cyanophenoxy)-3-(6-methyl-7-oxo-6,7-dihydro-1H-pyrrolo[2,3-c]pyridin-4-yl)phenyl]methanesulfonamide], the inhibition constant Ki in series [1] came to 0.0026 µM; in series [5], 0.0048 µM. Also, in series [2], the EC50 was found to be 0.0417 µM. Moreover, the half-life at 0.5 μM in series [3] was above 120 min; in series [4], above 120 min; in series [6], 46 min.
As for `Cn1cc(-c2cc(NS(C)(=O)=O)ccc2OC2CCCOC2)c2cc[nH]c2c1=O` (stereo not drawn) [Example 60, N-[3-(6-methyl-7-oxo-6,7-dihydro-1H-pyrrolo[2,3-c]pyridin-4-yl)-4-(tetrahydro-2H-pyran-3-yloxy)phenyl]methanesulfonamide], the Ki in series [1] turned out to be 0.00075 µM; in series [5] it was 0.0066 µM. Besides, the EC50 in series [2] was found to be 0.0142 µM. Besides, the half-life at 0.5 μM was determined as 64 min in series [3], 68 min in series [4] and 34 min in series [6].
`CCS(=O)(=O)N(CCN(C)C)c1ccc(Oc2ccc(F)cc2F)c(-c2cn(C)c(=O)c3[nH]ccc23)c1` [Example 296, N-[4-(2,4-difluorophenoxy)-3-(6-methyl-7-oxo-6,7-dihydro-1H-pyrrolo[2,3-c]pyridin-4-yl)phenyl]-N-[2-(dimethylamino)ethyl]ethanesulfonamide]: the inhibitory constant (Ki) was determined as 0.705 µM in series [1] and 0.101 µM in series [5]. Besides, the EC50 in series [2] came to 0.535 µM. Further, the half-life at 0.5 μM in series [3] was 13 min; in series [4], 7 min; in series [6], 6 min.
`Cn1cc(-c2cc(C(=O)NCC3CCCO3)ccc2Oc2ccccc2)c2cc[nH]c2c1=O` (stereo not drawn) [Example 14, 3-(6-methyl-7-oxo-6,7-dihydro-1H-pyrrolo[2,3-c]pyridin-4-yl)-4-phenoxy-N-(tetrahydrofuran-2-ylmethyl)benzamide]: the Ki is 0.0055 µM in series [1] and 0.0123 µM in series [5]. Moreover, in series [2], the EC50 was 0.17 µM. The half-life at 0.5 μM in series [3] amounted to 6 min; in series [4] it was 37 min; in series [6] it was 8 min.
